The numbers were not newly measured in US20220288147A1, “GINSENG COMPOSITION AND USE THEREOF AS A MEDICAMENT” (BOTALYS SA, priority 2019, published 2022), which cites them from elsewhere.

Each structure is given as a SMILES string.

The conditions of the series: oral.

As for `CC(C)=CCC[C@](C)(O[C@@H]1O[C@H](CO)[C@@H](O)[C@H](O)[C@H]1O)[C@H]1CC[C@]2(C)[C@@H]1[C@H](O)C[C@@H]1[C@@]3(C)CC[C@H](O)C(C)(C)[C@@H]3[C@@H](O[C@@H]3O[C@H](CO)[C@@H](O)[C@H](O)[C@H]3O)C[C@]12C` [Rg1], the “Absorption rates of an orally administered dose” value is not below 0.1%. With `CC(C)=CCC[C@](C)(O)[C@H]1CC[C@]2(C)[C@@H]1[C@H](O)C[C@@H]1[C@@]3(C)CC[C@H](O)C(C)(C)[C@@H]3[C@@H](O[C@@H]3O[C@H](CO)[C@@H](O)[C@H](O)[C@H]3O[C@@H]3O[C@@H](C)[C@H](O)[C@@H](O)[C@H]3O)C[C@]12C` [Rg2], the “Absorption rates of an orally administered dose” value is not below 1.9%.
